Test results taken from patent US20170071976A1, “PHARMACEUTICAL SOLUTION HAVING ANTI-TUMOR EFFECT-ENHANCING AND TOXICITY-REDUCING EFFECT, AND PHARMACEUTICAL COMPOSITION COMPRISING SAME” (priority 2014, published 2017).
Several values for one entry are separate records, joined by “and”; a condition that tells them apart may be missing. Equal values may be shown once. Marks after values point to notes of the source that are not given here.

Experiments:
[1] = tested on: human colon cancer HCT-116 cells inoculated into the peritoneal cavity; assay: Survival of nude mice bearing HCT-116 cells, 42° C. intraperitoneal retention lavage with hydroxyethyl starch or sodium chloride deuterium oxide solution and 5-FU; assay type: in vivo; conditions: 42° C. NS 10 ml/kg + 5-FU 20 mg/kg, i.p. lavage x 5
Method: Comparison of survival time of nude mice bearing human colon cancer HCT-116 cells upon 42° C. hyperthermic intraperitoneal retention lavage using a hydroxyethyl starch deuterium oxide solution in combination with 5-FU and using a sodium chloride deuterium oxide solution in combination with 5-FU.
Animal: 4 to 5 week-aged male nude mice, provided by Shanghai SIPPR-BK Laboratory Animal Co. Ltd.
Cell lines: human colon cancer cell line HCT-116 was provided by NANJING KEYGEN BIOTECH. CO., LTD.
Modeling: 0.2 ml suspension of HCT-116 cancer cells containing 1×10^7 cells/ml (2×10^6 cells in total) was inoculated into the peritoneal cavity of the nude mice.
Grouping and dosing: the mouse model was established 7 to 8 days after inoculation into the nude mice, and the mice were randomized with 18 animals/group.
5-FU was separately dissolved in the hydroxyethyl starch deuterium oxide solution at 42° C., and in the sodium chloride deuterium oxide solution at 42° C., for intraperitoneal lavage of tumor-bearing mice.
1). […]
The peritoneal cavity of nude mice was lavaged with the above compositions which were retained for 20 min in the peritoneal cavity after being introduced, which was performed once a day for 5 successive times. The body weight and abdomen circumference of the nude mice were measured on each day before administration of the drugs, and the daily living status of mice was observed. […]

[2] = tested on: xenograft tumors from human colon cancer HCT-116 cells; assay: HCT-116 xenograft in nude mice, intravenous deuterium oxide in combination with 5-fluorouracil; assay type: in vivo, BALB/c nude mice; conditions: for Inhibition (%): tumor weight
Method: Ltd. Cell lines: human colon cancer cells HCT-116 were provided by NANJING […] BIOTECH. CO., LTD. […] Bone marrow nucleated cells were isolated by a routine method, DNA was extracted from the cells, the OD value was measured in a UV-260 spectrometer as a representative of the DNA content, and inhibition of DNA synthesis by the test samples was observed. The test used 7 groups in total, with 8 animals per group. […] Tumor volume (TV) was calculated by the following equation: […] From the measurements, relative tumor volume (RTV) was calculated by the following equation: RTV=Vt/V0 Relative tumor growth ratio T/C (%) was calculated by the following equation: Criteria of efficacy evaluation: […] T/C %≦40% and statistically P<0.05, efficacious. Inhibition of tumor growth (%) was calculated by the following equation: Criteria of efficacy evaluation: […] The mean value was expressed in X±SD. Inter-group analysis was statistically performed with t test. The results were statistically analyzed using SPSS (Statistical Package for the Social Science) 17.0.

[3] = tested on: PC-3 prostate cancer cell line; assay: MTT assay: in vitro inhibition of growth by deuterium oxide; assay type: cell-based, human
Method: Studies of in vitro inhibition of growth of human tumor cells by deuterium oxide, by the MTT (3-(4,5-dimethylthiazol-2-yl)-2,5-diphenyltetrazolium bromide) assay
1. A bottle of cells that had been cultured for 3 to 4 days and were in the exponential phase was taken, a suitable amount of 0.25% Trypsin-EDTA solution was added thereto to detach the cells from the wall, and the cells were suspended in 10 ml RPMI 1640 medium containing 10% FBS. 2. The cells were counted on a hemocytometer, and generally viable cells should be not less than 97%. 3. The cell suspension was diluted with a complete medium to prepare a suspension containing 1×10^4 cells/ml. 4. To each well of a 12-well culture plate, 300 μl cell suspension was added. The addition of cells should be finished within 4 hours. The plate was placed in an incubator at 37° C. and 5% CO2 for 24 hours. 5. Powdery RPMI Medium 1640 (Gibco, USA, Cat#: 31800-022) was dissolved in deuterium oxide (provided by Cambridge Isotope Laboratories, Inc. (US)) to prepare a cell culture medium (unless particularly specified, all culture media used in the Examples hereinafter were prepared from powdery RPMI Medium 1640 and deuterium oxide) at a concentration shown in Table 1, which was added into the cell culture plate. 6. The cell culture plate was incubated for 3 days in an incubator at 37° C., 5% CO2 and 100% humidity. 7. A solution of 1 mg/ml MTT was prepared in a serum-free RPMI1640 medium, added to the plate at 200 μl/well, and incubated at 37° C. for 4 hours, to allow MTT to be reduced to formazan. 8. The supernatant was removed by pipetting, 200 μl DMSO was added to dissolve formazan, and the solution was well mixed on a platform shaker. 9. Absorbance of each well was measured on an ELISA reader with a detection wavelength of 570 nm and a reference wavelength of 450 nm. 10. The assay was repeated one more time.
Calculation of results: Inhibition of growth of tumor cells by deuterium oxide was calculated using tumor cells treated with sodium chloride physiological solution as a control group. Inhibition of cell growth was plotted against amounts of deuterium oxide to obtain a dose response curve, from which the half maximal inhibitory concentration (IC50) of deuterium oxide was derived.
Inhibition of tumor cell growth (%)=(1−OD test/OD control)×100%

[4] = 5-FU(H) 30 mg/kg × 11, tail vein
[5] = 5-FU(L) 12 mg/kg × 11, tail vein

SMILES: O=c1[nH]cc(F)c(=O)[nH]1 [Example 5-FU, 5-fluorouracil]
- T/C(%) [1]: 138.7%
- MST ([1]; control 12.4 ± 2.9): 17.2 ± 2.2 days
- Body weight (g) End, given as change [2, 4]: -1.0 g
- Body weight (g) Initial [2, 4]: 18.4 ± 0.5 g and 18.4 g
- Bone marrow DNA content (OD) [2, 4]: 0.836 ± 0.5023 OD
- Tumor weight [2, 4]: 1.04 ± 0.13 g
- Body weight (g) End, given as change [2, 5]: -0.6 g
- Body weight (g) Initial [2, 5]: 18.0 g
- Bone marrow DNA content (OD) [2, 5]: 0.897 ± 0.3783 OD
- Tumor weight [2, 5]: 2.23 ± 0.2 g
- tumor volume ([2]; 21 days after administration, low-dose 5-FU alone): 2.27±0.30 cm^3
- body weight at end ([2]; high-dose 5-FU positive control): 17.4 ± 0.5 g
- T/C (relative tumor growth ratio) ([2]; low-dose 5-FU alone, vs negative control): 80.91%
- Inhibition (%) [2, 4]: 64.38%*
- Inhibition (%) [2, 5]: 23.64% and 23.63%

SMILES: [2H]O[2H] [Deuterium oxide]
- Inhibition of growth (%) ([3]; deuterium oxide 1.2% (v/v)): 0.46%
- Inhibition of growth (%) ([3]; deuterium oxide 2.5% (v/v)): 4.33%
- Inhibition of growth (%) ([3]; deuterium oxide 5% (v/v)): −2.50%
- Inhibition of growth (%) ([3]; deuterium oxide 10% (v/v)): 8.81%
- Inhibition of growth (%) ([3]; deuterium oxide 20% (v/v)): −16.46%
- Inhibition of growth (%) ([3]; deuterium oxide 30% (v/v)): 26.67%
- Inhibition of growth (%) ([3]; deuterium oxide 40% (v/v)): 43.19%
- Inhibition of growth (%) ([3]; deuterium oxide 50% (v/v)): 59.42%
- Inhibition of growth (%) ([3]; deuterium oxide 60% (v/v)): 60.84%
- Inhibition of growth (%) ([3]; deuterium oxide 70% (v/v)): 73.42%
- Inhibition of growth (%) ([3]; deuterium oxide 80% (v/v)): 87.08%
- IC10 ([3]; expressed in v/v %): 9.35%
- IC50 ([3]; expressed in v/v %): 61.34%
